Reference: patent US8653032B2, “Pharmaceutical composition for preventing / treating TRPV1 activity-related and inflammation-related diseases or conditions containing maillard peptide separated from well-aged traditional soy sauce as active ingredient” (Korea Food Research Institute, priority 2009, dated 2014)

Test system: COX-2
Assay: COX-2 promoter reporter gene (luciferase) assay, COX-2 induced with TPA, cells transfected with TRPV1 of human
Format: cell-based
Details: Maillard peptides 0.1% and 0.2%
Protocol: In order to measure COX-2 activity inhibition effect of Maillard peptides of the present invention, the following experiment was performed.
[…] cells were cultivated in the growth medium (DMEM, 10% calf serum, 100 units/ml penicillin, 100 μg/ml streptomycin) at 37° C., atmosphere: air 95% (v/v), carbon dioxide, 5% to generate cells growing exponentially; the medium was removed, washed with PBS, and treated with trypsin to separate the cultivated cells; and the separated cells were placed in the medium containing serum to inactivate trypsin. Centrifugal filtration was performed at 200/g for 2 min to obtain cell pellets. […] The transformed plasmid cells were washed with PBS, and dissolution buffer (125 mM Tris pH 7.8, 10 mM CDTA, 10 mM DTT, 50% glycerol, 5% triton X-100) was added to destroy the cells and obtain supernatant liquid, and the amount (concentration) of protein was quantified with Bradford assay. Luciferase activity was measured by adding 100 μl of buffer(20 mM trysin, 1.07 mM (MgCO3)4Mg(OH)2H20, 2.67 mM MgSO4, 0.1 mM EDTA, 33.3 mM DTT, 270 μM coenzyme A(Lithium salt), 470 μM luciferin, 530 μM ATP) and measuring light emission with Luminometer (LUMAT LB 9501/16) for 20 min. […]

Compound: C=C(C)[C@]12C[C@@H](C)[C@@]34O[C@](Cc5ccccc5)(O[C@@H]1[C@@H]3C=C(COC(=O)Cc1ccc(O)c(OC)c1)C[C@]1(O)C(=O)C(C)=C[C@@H]41)O2 [resiniferatoxin]
- COX-2 activity induced by TPA: decreased
